Experimental data published in PubChem BioAssay AID1996.
Converted amounts (≈) assume the structure as drawn.

Conditions: buffer; pH 7.4; 200.0 µM

Row | SMILES | solubility kinetic [µg/mL]
1 | Cc1ccc(C)c(SCC(=O)N(C)C2CCS(=O)(=O)C2)c1 (stereo unspecified) | > 49.1
2 | Clc1cccc(Cl)c1C1Nc2cccc3cccc(c23)N1 | 3 (≈ 9.52 µM)
3 | O=c1[nH]c(=S)n(C2CC2)c(O)c1C=NCc1cccnc1 | > 45.4
4 | CC1(C(=O)O)CCC(C(=O)Nc2ccc(F)cc2)C1(C)C (stereo unspecified) | > 44
5 | Brc1ccc(OCc2cn3ccccc3n2)cc1 | 5.3 (≈ 17.5 µM)
6 | COc1cccc(NC(=O)NCc2ccccn2)c1 | > 38.6
7 | CC(=O)C1=C(O)C(=O)N(c2ccc(O)cc2)C1c1cccc(F)c1 (stereo unspecified) | > 49.1
8 | Cc1cccc(NC(=O)CSc2cccc3cccnc23)c1C | 3.7 (≈ 11.5 µM)
9 | O=C(CSc1nccc(=O)[nH]1)N1CCOCC1 | > 38.3
10 | CN1CCOCCOCCOCCN(C)C1=S | > 39.4
11 | COc1ccc(CNC(=O)c2coc(=O)c3ccccc23)cc1 | 30.8 (≈ 99.6 µM)
12 | Cc1cccc(NC(=S)N2CCN(S(C)(=O)=O)CC2)c1 | > 47
13 | COc1ccc(NC(=O)c2cc3ccccc3o2)cc1OC | 7.9 (≈ 26.6 µM)
14 | CC(NC(=O)c1c(F)cccc1Cl)c1ccc(-n2ccnc2)cc1 (stereo unspecified) | > 51.6
15 | Cc1ccc(-c2nc3ccccc3[nH]c2=O)cc1 | 1 (≈ 4.23 µM)
16 | Cc1ccc(C(=O)NCCCNC(=O)c2ccc(C)nc2)cc1 | > 46.7
17 | O=C(CCS(=O)(=O)c1ccccc1)NC1CCCC1 | > 42.2
18 | O=[N+]([O-])c1cccc(NC(=S)N2CCc3ccccc32)c1 | 7.6 (≈ 25.4 µM)
19 | CC(=O)Nc1ccc(C(=O)Nc2ccncc2)cc1 | 31.6 (≈ 124 µM)
20 | CCn1c(O)c(C=NCCN2CCOCC2)c(=O)n(CC)c1=S | > 51.1
21 | Cc1ccc(S(=O)(=O)NCC2CCCO2)cc1 (stereo unspecified) | > 38.3
22 | Cn1c(=O)oc2cc(S(=O)(=O)Nc3ccc(O)cc3)ccc21 | > 48

Row | SMILES | solubility kinetic [µg/mL]
23 | Cc1c(C)n(Cc2ccccc2)c2ccc(C(=O)O)cc12 | > 41.9
24 | COc1ccccc1N1CCN(Cc2nc3ccccc3[nH]2)CC1 | 47.9 (≈ 149 µM)
25 | CCc1ccc(N2CN=c3s/c(=C\c4ccccc4)c(=O)n3C2)cc1 | 8.2 (≈ 23.5 µM)
26 | CCS(=O)(=O)Nc1cccc(-c2nc3cccnc3s2)c1 | 45.4 (≈ 142 µM)
27 | Cc1ccc(S(=O)(=O)NC(=O)c2cccc(N(C)C)c2)cc1 | > 47.8
28 | CC(C)(CC(=O)O)CC(=O)NCc1c(Cl)cccc1Oc1ccccc1 | > 56.4
29 | CSc1nsc(SCC(=O)Nc2ccc(O)c(C(=O)O)c2)n1 | > 53.6
30 | Cn1c(=O)c2c(ncn2CC(=O)Nc2cc(S(=O)(=O)N3CCCCC3)ccc2O)n(C)c1=O | > 71.5
31 | COc1ccc2c(C#N)c3ccccn3c2c1 | 0.9 (≈ 4.05 µM)
32 | O=C(NCCc1ccccc1)c1ccc2c(c1)OCO2 | 39.6 (≈ 147 µM)
33 | N#C/C(=C(\O)c1cc(Cl)sc1Cl)c1nc2ccccc2[nH]1 | < 0.2
34 | O=C(Cc1ccccc1)N1CCN(c2ccccc2F)CC1 | > 44.8
35 | COc1ccc(Nc2nc(C)nc3c2oc2ccccc23)cc1 | 1.7 (≈ 5.57 µM)
36 | O=C(Nc1ccccc1C(=O)NCCCN1CCOCC1)c1ccc(F)cc1F | 59.6 (≈ 148 µM)
37 | O=C(C1CC(=O)N(c2ccc(Cl)cc2)C1)N1CCOCC1 (stereo unspecified) | 40 (≈ 130 µM)
38 | Cc1cc(NC(=O)NC(C(F)(F)F)C(F)(F)F)no1 | 22.7 (≈ 78 µM)
39 | CN(C)CCCNC(=O)c1cc(C(=O)Cc2ccccc2)c[nH]1 | > 47
40 | CC(C)(C)c1ccc(C(=O)N2CCN(C(=O)c3cccs3)CC2)cc1 | > 53.5
41 | Cc1ccc(S(=O)(=O)NC(=O)Nc2cccc(S(=O)(=O)N(C)C)c2)cc1 | > 59.6
42 | CCn1cnnc1SCC(=O)Nc1ccccc1C(=O)NC1CC1 | > 51.8
43 | CC(C)(C)c1csc(NC(=O)c2cccnc2Cl)n1 | 40.4 (≈ 137 µM)
44 | Cc1nc2ccc(NC(=S)NCc3ccccc3)cc2nc1C | > 48.4

Row | SMILES | solubility kinetic [µg/mL]
45 | Cc1ccc(NC(=S)c2ccncc2)cc1 | 33.5 (≈ 147 µM)
46 | S=c1[nH]nc(C2CCCCC2)o1 | > 27.6
47 | CCCn1cnc2cc(NC(=O)c3cccs3)ccc21 | > 42.8
48 | CC(C)Oc1cccc(C2NC(=O)c3ccccc3O2)c1 (stereo unspecified) | 6.7 (≈ 23.6 µM)
49 | CC(C)(CN1CCc2ccccc2C1)NS(=O)(=O)c1ccccc1 | 34.8 (≈ 101 µM)
50 | O=C1OC(c2ccc(F)cc2)=N/C1=C\c1ccc(Br)o1 | 9.6 (≈ 28.6 µM)
51 | O=C(COC(=O)CCC(=O)c1cccs1)NCc1ccccc1 | 45.6 (≈ 138 µM)
52 | CC1(C)CC2(CCO1)C(Nc1ccccc1)=NC(=S)N2c1ccccc1 (stereo unspecified) | < 0.3
53 | O=C(COC(=O)c1ccc(Cl)cc1[N+](=O)[O-])NCc1ccco1 | > 50.8
54 | O=c1cnnc(Nc2ccccc2F)[nH]1 | > 30.9
55 | OCCN(CCO)c1nc(N2CCCCC2)c2nc(N(CCO)CCO)nc(N3CCCCC3)c2n1 | 10.7 (≈ 21.2 µM)
56 | COc1ccc(S(=O)(=O)NC2CCCC2)cc1NC(C)=O | > 46.9
57 | O=C(NCCCN1CCCC1=O)c1cc2c(s1)CCCCC2 | > 48.1
58 | CN(CCO)c1nc(N)c(C#N)c(CC#N)c1C#N | > 38.4
59 | Cc1[nH]c2ccccc2c1C(=O)CN1CC(C)OC(C)C1 (stereo unspecified) | 39.4 (≈ 138 µM)
60 | Cc1ccc2[nH]c3c(c2c1)CN(C(=O)CN1CCCCC1)CC3 | 41.8 (≈ 134 µM)
61 | O=C(CCC(=O)c1cccs1)NC1CCCCCC1 | 25.6 (≈ 91.6 µM)
62 | Cc1cc(CNC(=S)Nc2cccc(Cl)c2Cl)nn1C | > 49.4
63 | COc1ccccc1NS(=O)(=O)c1cc(NC(=O)COc2ccccc2F)ccc1N1CCOCC1 | 2.4 (≈ 4.66 µM)
64 | CCC(Cc1ccccc1)NC(=O)C1CCCCC1 (stereo unspecified) | 11.6 (≈ 44.7 µM)
65 | Cc1ccc(S(=O)(=O)N(C)CC(=O)NNC(=O)CCNS(=O)(=O)c2cccc(C)c2)cc1 | > 72.4
66 | Cc1ccc(C)c(NC(=O)CCC(=O)N/N=C/c2cccnc2)c1 | > 48.7

Row | SMILES | solubility kinetic [µg/mL]
67 | COCC(=O)N1CCCC(N(C)CCc2ccc(OC)c(OC)c2)C1 (stereo unspecified) | > 52.6
68 | Cc1ccc2cc(NC(=O)Cc3ccccc3)ccc2n1 | 32.6 (≈ 118 µM)
69 | Cl.c1ccc(CN2CCNCC2)nc1 | 30.1
70 | COc1ccccc1OCCNC(=O)c1ccc(C)o1 | > 41.3
71 | O=C(c1cccc(C(F)(F)F)c1)N1CCc2c([nH]c3ccccc23)C1C(F)(F)F (stereo unspecified) | < 0.4
72 | COc1ccc(C(=O)N[C@H](C(=O)NCCCSc2ccccc2)C(C)C)cc1 | 2.2 (≈ 5.49 µM)
73 | O=C(Nc1ccc(F)c(Cl)c1)Nc1csc2ccccc12 | 1 (≈ 3.12 µM)
74 | COc1ccccc1C(=O)NCCCNC(=O)c1cnccn1 | 36.6 (≈ 116 µM)
75 | N#CC(C#N)=Cc1ccc(N2CCOCC2)cc1 | 4.4 (≈ 18.4 µM)
76 | COc1ccc(Cl)cc1C(=O)Nc1nc(C)cc(C)n1 | > 43.8
77 | Cc1ccnc(NC(=O)c2ccc3c(c2)NC(=O)C(C)S3)c1 (stereo unspecified) | 6.6 (≈ 21.1 µM)
78 | Cc1ccc(C)c(-c2csc(NC(=O)C3=COCCO3)n2)c1 | 11.3 (≈ 35.7 µM)
79 | CSc1ncccc1C(=O)Nc1cccc(S(=O)(=O)N2CCCCCC2)c1 | 11.2 (≈ 27.6 µM)
80 | CCCCOC(=O)c1ccc(OC(=O)N2CCOCC2)cc1 | > 46.1
81 | Cc1ccc(C(=O)NC(=S)NCc2cccnc2)cc1C | 26.9 (≈ 89.8 µM)
82 | CC(Oc1ccc(F)cc1)C(=O)N1CCN(c2ncccn2)CC1 (stereo unspecified) | > 49.6
83 | CN(C)C(CNC(=O)c1cccs1)c1ccco1 (stereo unspecified) | > 39.7
84 | CCC(C)[C@H](NC(=O)NCc1ccco1)C(=O)OC (stereo partly specified) | > 40.2
85 | CCC(CC)NC(=O)c1cccc(Br)c1 | 38.1 (≈ 141 µM)
86 | Cc1nc(/C(N)=N/OC(=O)c2ccc(Cl)cc2)c(C(F)(F)F)o1 | 17 (≈ 48.9 µM)
